From patent US6893633B2, “Methods and compositions for promoting the maturation of monocytes” (Maxim Pharmaceuticals, Inc., priority 2000, dated 2005)

How the values were obtained:
[1] = tested on: metastatic melanoma of the liver; conditions: histamine phosphate 10 mg/day with G-CSF 200,000 U/kg/day
Procedure: A subject presenting with metastatic melanoma of the liver is administered 200,000 U/kg/day of G-CSF and histamine phosphate at a dose of 10 mg/day.

[2] = tested on: CD3+ T cells, CD3-/56+ NK cells, and CD3+/56+ NK/T cells; conditions: apoptosis induced by autologous MO or GR; p<0.001
Excerpt: (§1) In human liver, NK-cells as well as NK/T-cells are much more abundant than in peripheral blood. […] All data are the mean±s.e.m. (n=15-30 blood donors).

[3] = tested on: CD86 antigen on human monocytes; experiment: CD86 antigen expression on human monocytes after treatment with histamine and/or GM-CSF; type: cell-based
Excerpt: Separation of monocytes. […] Hospital, Göteborg, Sweden. […] Treatment and cell staining.

[4] = tested on: monocytes HLA-DR expression
prostate cancer = conditions: histamine dihydrochloride 4 mg/day with CSF 300,000 U/kg/day and IL-12 100,000 U/kg/day
Procedure: A subject presenting with prostate cancer is administered 300,000 U/kg/day of CSF, 100,000 U/kg/day of IL-12, and histamine dihydrochloride at a dose of 4 mg/day.

NK/T cells = conditions: human, 25 μM
Excerpt: as §1

NK cells = conditions: human, 25 μM
Excerpt: as §1

T cells = conditions: human, 25 μM
Excerpt: as §1

Plasmodia species = experiment: Treatment of malaria infection; type: in vivo; conditions: serotonin 6 mg/day with GM-CSF 100,000 U/kg/day, parenteral
Procedure: A subject presenting with malaria is parenterally administered GM-CSF at a rate of 100,000 U/kg/day and serotonin at a dosage of 6 mg/day. The composition acts to enhance monocyte maturation, thereby allowing the subject's immune system to eradicate cells infected with Plasmodia species. Specifically, serotonin enhances the monocyte maturation-promoting activity of […]. An increase in the number of dendritic cells presenting antigens associated with Plasmodia is observed. T-cells recognize the Plasmodia antigens, as foreign, attack, and kill the cells. The number of infected cells decreases.

malignant melanoma = conditions: melanoma patients with stage III or stage IV disease; cited from earlier work

## NCCc1c[nH]cn1.O=P(O)(O)O [histamine phosphate]
[1]
  tumor mass: decrease

## Cl.Cl.NCCc1c[nH]cn1 [histamine, histamine dihydrochloride]
[2]
  prevention of apoptosis in all cell types: significantly prevented
[3]; histamine treatment alone
  intensity of cell surface expression of CD86: moderately enhanced
[4]
  monocytes HLA-DR expression: up-regulated
Prostate cancer
  tumor mass: decrease

## OO [hydrogen peroxide]
NK/T cells
  NK/T cells that became apoptotic: 78±7%
NK cells
  NK cells that became apoptotic: 65±7%
T cells
  T cells that became apoptotic: 35±5%

## NCCc1c[nH]c2ccc(O)cc12 [serotonin]
Plasmodia species
  number of dendritic cells presenting antigens associated with Plasmodia: increase
  number of infected cells: decreases

## granulocyte-macrophage colony-stimulating factor [GM-CSF]
[3]; overnight incubation (16 hrs), GM-CSF 0.15 μg/ml, histamine dihydrochloride 10 μM
  mean of the monocytes that expressed CD86: 88%
Malignant melanoma
  median survival time vs matched control patients: increased by a factor of three
